US20120064008A1, “COMPOSITIONS FOR THE TREATMENT OF METASTATIC CANCER AND METHODS OF USE THEREOF” (priority 2009, published 2012)
pEC50: −log10 of the molar value. Like-named read-outs stand apart in the source and are kept apart here.

Assays:
[1] = test system: PC3M human prostate cancer cells; assay: Cyquant cell viability assay, PC3M; format: cell-based; details: for pEC50: Homo sapiens, PC-3M, read-out: ED50 PC3M DMSO
Method: PC3M and PC3MLN4 cells were treated with vehicle, fenbendazole in DMSO, and fenbendazole in DMSO/NMP/TWEEN®-80/CrEL in varying doses for 72 hours. Cell viability assays using Cyquant reagent (Invitrogen, C7026) were performed as described in the literature. […] cells were seeded in 96 well plates overnight, before treated with either vehicle or benzimidazole solubilized in DMSO alone or in DMSO (12.5%)/NMP ([…])/TWEEN®-80 (25%)/Cr-EL (25%) for 72 hours. Cells were harvested by removing the media, washing once with phosphate buffered saline (PBS) and freezing at −80° C. for overnight. After thawing to room temperature, Cyquant reagent were prepared and added to the wells and the fluorescence intensity were measured with a spectrometer at 485 nm. Percent control was calculated by dividing the reading from drug-treated cells with the reading from vehicle-treated cells.
ED50 values were calculated from dose-effect analysis performed with Compusyn using data from the Cyquant cell viability assays.
ED50 values were calculated from dose-effect analysis performed with Compusyn using data from the Cyquant cell viability assays. All benzimidazoles drugs were solubilized in the combination carrier.

AT6.1 cells = assay: Normalized mitotic index (histone H3 phospho-Serine-28), AT6.1; format: cell-based; details: Rattus norvegicus, normalized against vehicle-treated cells
Description: The mitotic index for each agent was normalized against those obtained from vehicle-treated cells, and compared with the activity of paclitaxel, a known inducer of mitotic arrest.

[2] = test system: AT6.1 Dunning rat prostate carcinoma; assay: Survival in intravenous AT6.1 Dunning rat prostate carcinoma lung metastasis model; format: in vivo, nu/nu mice; details: for survival: 100 mg/kg, FIG. 6 (control 24.25 days); for average survival time: FIG. 5 (carrier only 20.4 days)
Method: Many anti-tumor drugs are tested only for their ability to prevent primary tumor growth or to prevent the dissemination of metastatic cells. To accomplish this, the drug is usually administered shortly after the primary tumor is established. […] The benzimidazoles described herein were evaluated in an experimental metastases model in the lungs of nude mice following tail-vein injection of Dunning rat AT6.1 prostate carcinoma. […] In order to achieve greater bioavailability, we first solubilized benzimidazoles in DNTC formulation and then diluted with saline prior to injection.
Inbred male nu/nu mice age 6-8 weeks were obtained from Massachusetts General Hospital (Boston, Mass.). The mice were virus antibody free, age and weight matched for experimental use and fed with a balanced rodent diet ad libitum. AT6.1 Dunning rat prostate cells were maintained as described above. 1×10^4 log-phase cells were injected via tail vein in 0.1 mL Hanks solution. Vehicle or drug treatment was started on day 5 post inoculation and given three times a week (Monday, Wednesday and Friday) via intraperitoneal injection in 0.5 mL volume. Benzimidazole drugs were prepared in the combination carrier [DMSO (12.5%), NMP (37.5%), TWEEN®-80 (25%) and CrEL (25%)] and diluted in saline. Vehicle control was prepared by diluting the combination carrier with saline.
During the course of treatment, the mice were monitored for toxicity by measuring body weight. […] Animals were euthanized with CO2 and tissues were collected for further analysis. The animals and experiments used in these studies were approved by the institutional animal care committee according to Children's Hospital Boston ARCH guidelines.
To distinguish differences in survival between these groups, the percent increase in life span (ILS %), defined as the percent increase in the mean time to death of drug-treated animals over the corresponding time to death for vehicle-treated mice, was calculated.

[3] = test system: DU145 human prostate cancer cells; assay: Cyquant cell viability assay, DU145; format: cell-based; details: read-out: ED50 DU145
Method: The cytotoxic effects of paclitaxel, fenbendazole, and albendazole were compared in paclitaxel-resistant PC3-TR and DU145-TR prostate cancer cells with their paclitaxel-sensitive counterparts, PC3 and DU145 cells. Cells were treated for 72 hours with vehicle, paclitaxel, fenbendazole or albendazole in various doses. Cell viability was measured using Cyquant assay, and percent control was calculated by dividing the fluorescent reading from drug-treated cells with those from vehicle-treated cells, indicating percentage of cell survival.

[4] = test system: MES-SA human uterine sarcoma cells; assay: Cell viability, MES-SA; format: cell-based; details: read-out: ED50 MES-SA
Description: Benzimidazoles retain their anti-tumor activity in these paclitaxel-resistant cells, with higher potency when compared to the parental cells (see Table 4). Cells resistant to microtubule-stabilizing drugs such as the taxanes are more susceptible to microtubule-disrupting agents. To confirm this, human uterine sarcoma MES-SA/Dx5 cells, which are cross-resistant to various chemotherapeutic agents, including the microtubule-disrupting agents vincristine and colchicine, were used.

PC-3MLN4 cells = assay: Experimental bone metastasis model, PC-3MLN4 cells expressing luciferase, intraosseous; format: in vivo, immunocompromised mice; details: 100 mg/kg for two weeks
Method: (§1) Using the metastatic prostate cancer PC-3MLN4 cells that expressed luciferase, the anti-tumor effects of benzimidazoles in a model of experimental bone metastasis were investigated. Cells were inoculated directly into a single tibia of immunocompromised mice via intraosseous injection. When bone lesions were confirmed to be growing via bioluminescent imaging, mice were randomized and treated with vehicle or with 100 mg/kg albendazole for two weeks. […] There was a significant difference in average luciferase signal between the two groups over the course of treatment (P<0.05).
At the end of study, the anatomical and radiographic characteristics of the bone lesions were evaluated with X-ray and micro-computerized tomography (CT) imaging.
as §1, with “(P<0.05) (see FIG. 13).” for “(P<0.05).”
At the end of study, the anatomical and radiographical characteristics of the bone lesions were evaluated with X-ray and micro-computerized tomography (CT) imaging.

DU-145TR cells = assay: Gene expression profiling, DU-145 and DU-145TR; format: cell-based, human; details: DU-145TR vs DU-145, 2-fold cut off
Description: In order to dissect the mechanisms underlying the anti-tumor effects of benzimidazoles in these cells, gene expression profiling was done comparing albendazole treated DU-145 and DU-145TR cells.

[5] = 100 mg/kg i.p. three times a week, over vehicle-treated mice

Row | SMILES | pEC50 ([1]; solubilized in DMSO alone, 72 hours) | reduction in ED50, DNTC compared to DMSO, PC-3M ([1]; solubilized in DNTC vs DMSO) | fold induction at 1 µM (AT6.1 cells; at 1 μM, read-out: Normalized mitotic index AT6.1) | percent increase in life span (ILS %) [2, 5] | survival [2] | pEC50 ([3]; DU-145, 72 hours) | pEC50 [4] | pEC50 ([1]; 72 h) | fold induction at 1 µM (AT6.1 cells; read-out: Normalized mitotic index AT6.1, at 1 μM) | average survival time ([2]; 50 mg/kg i.p. three times a week from day 5) | average survival time ([2]; 100 mg/kg i.p. three times a week from day 5) | percent increase in life span (ILS %) ([2]; 250 mg/kg three times a week) | pEC50 ([3]; DU-145, 72 h) | tumor growth (luciferase signal) compared to vehicle (PC-3MLN4 cells) | Ki-67 labeling index of bone lesions (PC-3MLN4 cells; P<0.005) | apoptotic index of bone lesions (activated caspase-3 staining) (PC-3MLN4 cells; P<0.005) | bone integrity (X-ray and micro-CT imaging) (PC-3MLN4 cells; end of study) | expression of ER stress signaling genes (ATF-2, ATF-3, HERPUD1, CHOP, ANKRD1, GADD45alpha) (DU-145TR cells)
1 | COC(=O)Nc1nc2ccc(Sc3ccccc3)cc2[nH]1 [Fenbendazole, fenbendazole] | 5.27 | ~2 fold | > 1 | 45.3% | 35.25 days | 4.97 | 5.52 |  |  |  |  |  |  |  |  |  |  | 
2 | CCCSc1ccc2nc(NC(=O)OC)[nH]c2c1 [Albendazole, albendazole] |  |  |  | 59.7% | 38.75 days |  | 5.83 | 5.32 | > 1 | 24.4 days | 32 days | 64% | 5.62 | reduced tumor growth | reduction | increase | bone integrity was maintained | differentially expressed
